Data reported in US20230364230A1, “COMBINATION THERAPY FOR CANCER” (ENGMAB SÀRL, priority 2020, published 2023).

Molecular target: Aiolos (Homo sapiens, UniProt Q96SW2+Q9UKT9)
Assay: Degradation of Aiolos in primary NK cells (intracellular staining, flow cytometry)
Type: cell-based
Set-up: endogenous in cells; host or cells: primary human NK cells gated from healthy-donor PBMCs
Conditions: PBMCs from healthy donors (n=7), dose titrations, 5 hours
Experimental: Intracellular staining of Aiolos and Ikaros in primary human NK cells was performed by flow cytometry gating on live, CD3-CD4-CD8-CD56+CD16+NK cell populations.

Chain of Aiolos (Q9UKT9 whole entry): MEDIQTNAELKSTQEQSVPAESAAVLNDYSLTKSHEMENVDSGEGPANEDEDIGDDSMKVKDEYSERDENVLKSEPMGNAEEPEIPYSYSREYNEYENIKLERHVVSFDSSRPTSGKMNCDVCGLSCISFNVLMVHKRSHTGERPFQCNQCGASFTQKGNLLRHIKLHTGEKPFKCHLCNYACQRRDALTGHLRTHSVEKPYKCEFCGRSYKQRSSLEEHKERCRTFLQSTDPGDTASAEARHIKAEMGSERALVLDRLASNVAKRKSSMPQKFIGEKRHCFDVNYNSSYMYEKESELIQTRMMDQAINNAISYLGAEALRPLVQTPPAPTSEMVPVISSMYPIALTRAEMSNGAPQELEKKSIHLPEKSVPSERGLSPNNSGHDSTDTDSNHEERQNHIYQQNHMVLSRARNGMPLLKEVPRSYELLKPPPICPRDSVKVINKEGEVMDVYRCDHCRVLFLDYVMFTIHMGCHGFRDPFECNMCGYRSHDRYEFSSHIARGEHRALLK
Chain of Aiolos (Q96SW2 whole entry): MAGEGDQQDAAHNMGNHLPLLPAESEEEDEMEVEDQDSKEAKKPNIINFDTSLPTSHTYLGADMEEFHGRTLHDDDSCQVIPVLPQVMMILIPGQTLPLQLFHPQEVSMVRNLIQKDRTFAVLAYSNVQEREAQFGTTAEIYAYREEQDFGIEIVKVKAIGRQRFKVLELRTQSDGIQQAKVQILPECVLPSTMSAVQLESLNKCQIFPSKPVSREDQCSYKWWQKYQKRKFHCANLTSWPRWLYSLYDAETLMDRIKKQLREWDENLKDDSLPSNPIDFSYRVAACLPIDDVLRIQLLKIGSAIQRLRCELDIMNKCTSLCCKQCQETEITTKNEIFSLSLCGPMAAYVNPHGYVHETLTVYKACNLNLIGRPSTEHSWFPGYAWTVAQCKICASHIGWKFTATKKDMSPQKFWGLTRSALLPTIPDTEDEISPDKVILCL
Chain of Aiolos (Q16531 whole entry partner): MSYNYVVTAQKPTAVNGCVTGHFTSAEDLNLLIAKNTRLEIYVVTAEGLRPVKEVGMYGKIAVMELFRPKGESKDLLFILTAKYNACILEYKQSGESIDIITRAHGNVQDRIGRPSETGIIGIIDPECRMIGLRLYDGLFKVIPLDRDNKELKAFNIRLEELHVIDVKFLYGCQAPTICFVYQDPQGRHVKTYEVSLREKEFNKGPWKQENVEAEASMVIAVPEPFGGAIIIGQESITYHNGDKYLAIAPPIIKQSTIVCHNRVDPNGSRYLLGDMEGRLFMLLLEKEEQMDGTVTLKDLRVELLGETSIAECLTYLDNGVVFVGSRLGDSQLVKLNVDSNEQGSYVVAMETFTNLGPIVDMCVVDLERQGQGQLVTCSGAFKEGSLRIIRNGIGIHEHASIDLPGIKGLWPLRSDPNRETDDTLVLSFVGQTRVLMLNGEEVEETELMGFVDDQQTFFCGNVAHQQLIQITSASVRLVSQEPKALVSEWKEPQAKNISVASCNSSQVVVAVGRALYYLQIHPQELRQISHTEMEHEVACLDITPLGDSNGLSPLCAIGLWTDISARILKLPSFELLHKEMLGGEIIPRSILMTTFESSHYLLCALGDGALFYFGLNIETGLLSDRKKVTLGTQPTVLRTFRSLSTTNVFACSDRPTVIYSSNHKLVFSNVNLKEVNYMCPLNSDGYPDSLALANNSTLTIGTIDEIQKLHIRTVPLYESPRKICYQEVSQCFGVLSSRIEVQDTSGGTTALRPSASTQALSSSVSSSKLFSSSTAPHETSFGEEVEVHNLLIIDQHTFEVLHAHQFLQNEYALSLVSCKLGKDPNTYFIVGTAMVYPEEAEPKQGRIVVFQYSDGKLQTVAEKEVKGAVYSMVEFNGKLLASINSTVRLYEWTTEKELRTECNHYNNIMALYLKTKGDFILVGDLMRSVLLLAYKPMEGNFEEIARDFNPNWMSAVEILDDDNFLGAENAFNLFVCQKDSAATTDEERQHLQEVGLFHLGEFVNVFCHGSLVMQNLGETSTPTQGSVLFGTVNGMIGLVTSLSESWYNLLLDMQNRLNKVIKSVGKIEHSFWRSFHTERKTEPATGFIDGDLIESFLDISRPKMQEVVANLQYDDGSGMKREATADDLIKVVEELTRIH

SMILES: O=C1CC[C@H](N2Cc3c(OCc4ccc(CN5CCOCC5)cc4)cccc3C2=O)C(=O)N1 [CC-220, (S)-3-(4-((4-(Morpholinomethyl)benzyl)oxy)-1-oxoisoindolin-2-yl)piperidine-2,6-dione]
- degradation of Aiolos in primary NK cells: mediates degradation
